# Data: patent US6114393A, “Use of inhibitors of the sodium-hydrogen exchanger for the production of a pharmaceutical for the treatment of disorders which are caused by protozoa” (Hoechst Marion Roussel Deutschland GmbH, priority 1997, dated 2000)
# Counter-ions that a name gives are not always drawn. Like-named read-outs stand apart in the source and are kept apart here.
# Key:
# [1] = test system: Plasmodium falciparum HB3 (chloroquine-sensitive) strain; assay: growth inhibition of Plasmodium falciparum, [3H]-hypoxanthine incorporation, chloroquine-sensitive (HB3) strain; type: cell-based; settings: 48 h erythrocyte cycle, ring stage, 1% parasitemia
# Experimental: (§1) Erythrocytic stages of the human malaria parasite Plasmodium falciparum were cultured in RPMI 1640 medium, with L-glutamine, 25 mM HEPES, 4 μg/ml of gentamycin, 10% human serum and 5% human erythrocytes, according to Trager and Jensen (1976). The cultures were kept in Petri dishes (10 ml per dish with 10 cm diameter) and incubated at 37° C. in an atmosphere of 92% nitrogen, 3% carbon dioxide and 5% oxygen. The medium of the cultures was changed daily. At a parasitemia of at most 10%, the cultures were diluted. In order to synchronize the cultures, the infected erythrocytes were washed in 5% strength sorbitol solution according to Lambros and Vanderberg (1979). Only the ring stages survive this treatment.
# (§2) The half-maximal inhibitory concentration of various NHE inhibitors for the growth of Plasmodium flaciparum was measured in 96-well microtiter plates by incorporation of radioactive hypoxanthine according to Desjardins et al. (1979). In this case, the parasites were cultured for a complete erythrocyte cycle lasting 48 hours in the presence of the corresponding NHE inhibitors.
# (§3) The NHE inhibitors were dissolved in DMSO and prediluted in physiological saline solution (150 mM NaCl). The dilution series of the NHE inhibitors in 10-fold concentrated 20 μl aliquots was initially introduced onto the microtiter plates, 180 μl of parasite suspension in culture medium were then added to each one. The parasites were in the ring stage with a parasitemia of 1%. The microtiter plates were then incubated for 24 hours. In order to change the culture medium, 150 μl each of supernatant from each well were removed and replaced by 135 μl of new medium, additionally supplemented with 2 μCi/ml of [3H]-hypoxanthine. […] After incubation for a further 24 hours, the cultures were harvested by filtration on glass fiber filters and the incorporated radioactivity was measured. […]
# (§4) The IC50 values of the various NHE inhibitors were measured on a chloroquine-sensitive (HB3) and a chloroquine-resistant (Dd2) strain.
# [2] = test system: Plasmodium falciparum Dd2 (chloroquine-resistant) strain; assay: growth inhibition of Plasmodium falciparum, [3H]-hypoxanthine incorporation, chloroquine-resistant (Dd2) strain; type: cell-based; settings: read-out: Dd2 IC50
# Experimental: as §1, §2, §3, §4
# [3] = Dd2, chloroquine-resistant, 48 h erythrocyte cycle, ring stage, 1% parasitemia
IC50 [1] [µM],"IC50 [2, 3] [µM]",Compound,"IC50 ([2]; DD2, Erythrocyte, 48 h) [µM]"
12 ± 1.7,6.5 ± 1.5,NC(N)=NC(=O)c1ccc(Oc2cccnc2)c(C(F)(F)F)c1 [3-trifluoromethyl-4-(3-pyridyloxy)benzoylguanidine dihydrochloride],–
9.97,1.3 ± 0.1,"CN(C)c1cc(C(=O)N=C(N)N)cc(C(F)(F)F)c1 [3-trifluoromethyl-5-N,N-dimethylaminobenzoylguanidine dihydrochloride]",–

Compound,IC50 [1] [µM],"IC50 [2, 3] [µM]","IC50 ([2]; DD2, Erythrocyte, 48 h) [µM]"
CS(=O)(=O)c1cc(C(=O)N=C(N)N)ccc1Oc1ccc(CCN)cc1 [4-[4-(2-aminoethyl)phenoxy]-3-methylsulfonylbenzoylguanidine dihydrochloride],2.9 ± 0.79,–,3.5 ± 0.04
